ChEMBL document CHEMBL3856191, “Structural modifications at the 6-position of thieno[2,3-d]pyrimidines and their effects on potency at FLT3 for treatment of acute myeloid leukemia” (Eur J Med Chem, 2016)

How the values were obtained:
[1] = target: Tyrosine-protein kinase JAK1 (Homo sapiens) (UniProt P23458); test: Inhibition of human JAK1 assessed as remaining activity at 10 uM in presence of [gamma-32P]ATP by […] assay
[2] = target: Mitogen-activated protein kinase 10 (Homo sapiens) (UniProt P53779); test: Inhibition of recombinant human JNK3 expressed in insect Sf21 cells assessed as remaining activity at 10 uM preincubated for 15 mins followed by ATF2 substrate addition for 30 mins in presence of [gamma-32P]ATP by […] assay
[3] = target: Non-receptor tyrosine-protein kinase TYK2 (Homo sapiens) (UniProt P29597); test: Inhibition of human TYK2 assessed as remaining activity at 10 uM in presence of [gamma-32P]ATP by […] assay
[4] = target: Inhibitor of nuclear factor kappa-B kinase subunit beta (Homo sapiens) (UniProt O14920); test: Inhibition of recombinant human IKK-beta expressed in insect Sf21 cells assessed as remaining activity at 10 uM preincubated for 15 mins followed by IKKtide substrate addition for 30 mins in presence of [gamma-32P]ATP by […] assay
[5] = Clearance in Sprague-Dawley rat at 5 mg/kg, iv up to 24 hrs by LC/MS/MS analysis; type: ADME, organism-based; conditions: in vivo
[6] = target: Tyrosine-protein kinase Lyn (Homo sapiens) (UniProt P07948); test: Inhibition of LYN (unknown origin) assessed as remaining activity at 10 uM in presence of [gamma-32P]ATP by […] assay
[7] = target: Aurora kinase B (Homo sapiens) (UniProt Q96GD4); test: Inhibition of human AURORA B assessed as remaining activity at 10 uM preincubated for 15 mins followed by substrate addition for 30 mins in presence of [gamma-32P]ATP by […] assay
[8] = Elimination half life in Sprague-Dawley rat at 30 mg/kg, po by LC/MS/MS analysis; type: ADME, organism-based; conditions: in vivo, read-out: beta t1/2 (converted)
[9] = target: Angiopoietin-1 receptor (Homo sapiens, UniProt Q02763); test: Inhibition of human TIE2 preincubated for 15 mins followed by substrate addition measured after 30 mins in presence of [gamma-32P]ATP by […] assay
[10] = target: Serine/threonine-protein kinase mTOR (Homo sapiens) (UniProt P42345); test: Inhibition of human mTOR assessed as remaining activity at 10 uM in presence of [gamma-32P]ATP by […] assay
[11] = target: Protein kinase C alpha type (Homo sapiens) (UniProt P17252); test: Inhibition of recombinant human PKC-alpha expressed in insect Sf9 cells assessed as remaining activity at 10 uM preincubated for 15 mins followed by Histone substrate addition for 30 mins in presence of [gamma-32P]ATP by […] assay
[12] = target: Tyrosine-protein kinase SYK (Homo sapiens) (UniProt P43405); test: Inhibition of recombinant human SYK expressed in insect Sf21 cells assessed as remaining activity at 10 uM preincubated for 15 mins followed by poly(Glu:Tyr) substrate addition for 30 mins in presence of [gamma-32P]ATP by […] assay
[13] = system: Tyrosine-protein kinase ABL1 (Homo sapiens), P00519 [T315I]; test: Inhibition of human ABL T315I mutant assessed as remaining activity at 10 uM preincubated for 15 mins followed by poly(Glu:Tyr) substrate addition for 30 mins in presence of [gamma-32P]ATP by […] assay
[14] = target: PI3K p110 beta/p85 alpha (Homo sapiens) (UniProt P27986+P42338); test: Inhibition of PI3K p110beta/p85alpha (unknown origin) assessed as remaining activity at 10 uM in presence of [gamma-32P]ATP by […] assay; type: protein-complex assay
[15] = target: Mast/stem cell growth factor receptor Kit (Homo sapiens) (UniProt P10721); test: Inhibition of recombinant human c-Kit expressed in insect High-5 cells assessed as remaining activity at 10 uM preincubated for 15 mins followed by poly(Glu:Tyr) substrate addition for 30 mins in presence of [gamma-32P]ATP by […] assay; conditions: BTI-TN-5B1-4
[16] = target: Mitogen-activated protein kinase 14 (Homo sapiens) (UniProt Q16539); test: Inhibition of human SAPK2a assessed as remaining activity at 10 uM in presence of [gamma-32P]ATP by […] assay
[17] = target: Serine-protein kinase ATM (Homo sapiens) (UniProt Q13315); test: Inhibition of human ATM assessed as remaining activity at 10 uM preincubated for 15 mins followed by substrate addition for 30 mins in presence of [gamma-32P]ATP by […] assay
[18] = target: Platelet-derived growth factor receptor beta (Homo sapiens) (UniProt P09619); test: Inhibition of recombinant human PDGFR-beta expressed in insect Sf21 cells assessed as remaining activity at 10 uM preincubated for 15 mins followed by poly(Glu:Tyr) substrate addition for 30 mins in presence of [gamma-32P]ATP by […] assay
[19] = target: Mitogen-activated protein kinase 9 (Homo sapiens) (UniProt P45984); test: Inhibition of recombinant human JNK2alpha2 expressed in insect Sf21 cells assessed as remaining activity at 10 uM preincubated for 15 mins followed by ATF2 substrate addition for 30 mins in presence of [gamma-32P]ATP by […] assay
[20] = cells; conditions: Homo sapiens, MV4-11, 48 h
Description: Growth inhibition of human MV4-11 cells expressing FLT3-ITD after 48 hrs by XTT assay

[21] = target: MAP kinase-activated protein kinase 2 (Homo sapiens) (UniProt P49137); test: Inhibition of recombinant human MAPKAPK2 expressed in Escherichia coli assessed as remaining activity at 10 uM preincubated for 15 mins followed by MAPKAPK substrate peptide addition for 30 mins in presence of [gamma-32P]ATP by […] assay
[22] = AUC (0 to infinity) in Sprague-Dawley rat at 5 mg/kg, iv up to 24 hrs by LC/MS/MS analysis; type: ADME, organism-based; set-up: dose 5 mg/kg, route intravenous, time infinity; conditions: in vivo
[23] = target: Tyrosine-protein kinase Lck (Homo sapiens) (UniProt P06239); test: Inhibition of recombinant human LCK expressed in insect cells assessed as remaining activity at 10 uM preincubated for 15 mins followed by poly(Glu:Tyr) substrate addition for 30 mins in presence of [gamma-32P]ATP by […] assay
[24] = target: Dual specificity mitogen-activated protein kinase kinase 6 (Homo sapiens) (UniProt P52564); test: Inhibition of human MKK6 assessed as remaining activity at 10 uM in presence of [gamma-32P]ATP by […] assay
[25] = target: Epidermal growth factor receptor (Homo sapiens) (UniProt P00533); test: Inhibition of human EGFR assessed as remaining activity at 10 uM in presence of [gamma-32P]ATP by […] assay
[26] = target: Dual specificity mitogen-activated protein kinase kinase 7 (Homo sapiens) (UniProt O14733); test: Inhibition of human MKK7beta assessed as remaining activity at 10 uM in presence of [gamma-32P]ATP by […] assay

Sequence of Mitogen-activated protein kinase 10 (Homo sapiens) (P53779 whole entry): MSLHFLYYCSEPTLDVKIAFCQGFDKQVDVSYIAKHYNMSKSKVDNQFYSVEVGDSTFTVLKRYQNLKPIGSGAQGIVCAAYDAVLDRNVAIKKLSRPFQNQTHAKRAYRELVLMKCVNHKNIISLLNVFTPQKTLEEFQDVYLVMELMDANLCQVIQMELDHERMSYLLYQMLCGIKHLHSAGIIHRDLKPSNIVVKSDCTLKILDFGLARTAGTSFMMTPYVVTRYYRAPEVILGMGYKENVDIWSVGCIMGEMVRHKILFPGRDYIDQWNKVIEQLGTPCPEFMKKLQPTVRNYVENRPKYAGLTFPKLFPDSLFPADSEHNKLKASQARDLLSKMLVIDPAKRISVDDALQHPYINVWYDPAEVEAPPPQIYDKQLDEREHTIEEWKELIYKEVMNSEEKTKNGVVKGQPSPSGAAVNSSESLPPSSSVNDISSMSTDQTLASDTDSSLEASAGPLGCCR
Sequence of Dual specificity mitogen-activated protein kinase kinase 6 (Homo sapiens) (P52564 whole entry): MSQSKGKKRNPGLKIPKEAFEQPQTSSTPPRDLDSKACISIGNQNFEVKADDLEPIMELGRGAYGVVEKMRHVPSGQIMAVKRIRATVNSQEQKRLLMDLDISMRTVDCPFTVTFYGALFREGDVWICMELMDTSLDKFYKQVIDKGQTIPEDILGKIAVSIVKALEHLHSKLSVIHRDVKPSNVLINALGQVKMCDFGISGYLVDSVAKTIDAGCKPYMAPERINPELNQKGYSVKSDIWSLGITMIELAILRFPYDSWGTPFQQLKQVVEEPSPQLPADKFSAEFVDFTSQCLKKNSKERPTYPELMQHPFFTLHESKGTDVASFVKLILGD
Sequence of Mast/stem cell growth factor receptor Kit (Homo sapiens) (P10721 whole entry): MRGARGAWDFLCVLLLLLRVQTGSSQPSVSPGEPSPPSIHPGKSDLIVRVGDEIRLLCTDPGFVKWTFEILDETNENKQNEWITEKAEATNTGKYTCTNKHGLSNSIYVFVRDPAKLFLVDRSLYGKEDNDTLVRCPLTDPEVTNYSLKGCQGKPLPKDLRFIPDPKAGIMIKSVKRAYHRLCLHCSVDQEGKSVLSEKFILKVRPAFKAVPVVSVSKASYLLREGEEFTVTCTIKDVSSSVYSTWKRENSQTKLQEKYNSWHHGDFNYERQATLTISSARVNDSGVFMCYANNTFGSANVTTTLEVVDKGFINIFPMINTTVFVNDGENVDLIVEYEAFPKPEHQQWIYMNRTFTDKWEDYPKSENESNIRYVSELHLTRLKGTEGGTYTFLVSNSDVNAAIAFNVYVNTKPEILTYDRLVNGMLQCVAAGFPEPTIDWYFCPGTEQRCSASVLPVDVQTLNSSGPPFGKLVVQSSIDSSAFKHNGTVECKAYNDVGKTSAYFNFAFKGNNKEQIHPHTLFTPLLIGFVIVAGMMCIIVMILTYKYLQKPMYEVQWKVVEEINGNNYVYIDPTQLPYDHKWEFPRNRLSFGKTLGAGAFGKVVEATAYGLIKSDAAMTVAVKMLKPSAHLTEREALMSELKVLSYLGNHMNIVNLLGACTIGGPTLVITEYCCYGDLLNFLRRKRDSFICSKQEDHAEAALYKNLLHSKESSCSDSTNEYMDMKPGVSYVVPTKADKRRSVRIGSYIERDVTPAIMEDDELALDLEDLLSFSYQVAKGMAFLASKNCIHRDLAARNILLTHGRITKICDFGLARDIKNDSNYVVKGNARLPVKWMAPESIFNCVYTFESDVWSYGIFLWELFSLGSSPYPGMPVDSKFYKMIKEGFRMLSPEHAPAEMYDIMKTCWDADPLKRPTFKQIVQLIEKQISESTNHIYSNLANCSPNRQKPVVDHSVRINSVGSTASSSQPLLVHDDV
Sequence of Epidermal growth factor receptor (Homo sapiens) (P00533 whole entry): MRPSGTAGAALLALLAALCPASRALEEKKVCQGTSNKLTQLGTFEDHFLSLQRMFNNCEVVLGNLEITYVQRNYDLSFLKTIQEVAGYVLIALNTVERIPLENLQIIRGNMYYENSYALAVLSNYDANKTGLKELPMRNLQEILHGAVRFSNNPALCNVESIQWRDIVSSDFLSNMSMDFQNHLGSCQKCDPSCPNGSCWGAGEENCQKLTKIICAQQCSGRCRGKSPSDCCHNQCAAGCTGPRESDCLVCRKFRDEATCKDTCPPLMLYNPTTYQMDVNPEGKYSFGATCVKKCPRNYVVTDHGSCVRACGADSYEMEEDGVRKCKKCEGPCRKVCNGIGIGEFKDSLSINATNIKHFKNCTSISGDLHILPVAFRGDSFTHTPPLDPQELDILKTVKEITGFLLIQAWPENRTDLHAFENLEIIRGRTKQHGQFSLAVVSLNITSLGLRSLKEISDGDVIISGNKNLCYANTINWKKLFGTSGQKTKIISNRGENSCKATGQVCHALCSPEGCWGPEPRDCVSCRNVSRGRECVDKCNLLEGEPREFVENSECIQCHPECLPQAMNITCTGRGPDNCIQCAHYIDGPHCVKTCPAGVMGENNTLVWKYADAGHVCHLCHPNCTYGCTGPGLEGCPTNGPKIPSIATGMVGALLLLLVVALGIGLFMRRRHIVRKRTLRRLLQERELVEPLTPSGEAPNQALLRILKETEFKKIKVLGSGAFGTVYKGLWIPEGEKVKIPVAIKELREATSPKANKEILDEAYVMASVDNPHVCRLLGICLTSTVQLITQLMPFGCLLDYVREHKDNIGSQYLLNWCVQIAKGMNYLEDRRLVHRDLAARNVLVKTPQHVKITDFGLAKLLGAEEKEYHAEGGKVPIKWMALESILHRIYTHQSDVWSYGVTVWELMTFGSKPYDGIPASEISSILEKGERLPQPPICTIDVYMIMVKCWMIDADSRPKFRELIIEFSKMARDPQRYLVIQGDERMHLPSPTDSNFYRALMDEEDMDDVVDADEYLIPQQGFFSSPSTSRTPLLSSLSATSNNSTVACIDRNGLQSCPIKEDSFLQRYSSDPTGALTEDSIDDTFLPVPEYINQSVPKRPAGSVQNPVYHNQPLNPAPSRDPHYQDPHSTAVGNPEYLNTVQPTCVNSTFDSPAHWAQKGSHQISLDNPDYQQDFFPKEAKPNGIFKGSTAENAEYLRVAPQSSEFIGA
Sequence of Tyrosine-protein kinase Lyn (Homo sapiens) (P07948 2-512 limits assumed): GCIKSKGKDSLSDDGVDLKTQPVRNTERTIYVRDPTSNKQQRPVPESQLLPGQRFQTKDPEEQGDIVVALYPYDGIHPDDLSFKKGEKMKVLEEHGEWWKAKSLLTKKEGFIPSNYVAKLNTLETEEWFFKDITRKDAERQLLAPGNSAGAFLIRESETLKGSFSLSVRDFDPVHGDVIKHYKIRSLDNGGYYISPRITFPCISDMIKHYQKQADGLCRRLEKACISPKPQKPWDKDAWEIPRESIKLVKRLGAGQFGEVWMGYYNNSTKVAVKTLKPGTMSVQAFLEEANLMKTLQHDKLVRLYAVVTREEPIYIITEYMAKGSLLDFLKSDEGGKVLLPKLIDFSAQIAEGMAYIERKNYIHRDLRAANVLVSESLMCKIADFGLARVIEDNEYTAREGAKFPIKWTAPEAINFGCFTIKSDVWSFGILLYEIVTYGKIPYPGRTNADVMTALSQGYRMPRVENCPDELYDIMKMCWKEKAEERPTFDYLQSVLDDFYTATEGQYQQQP
Sequence of Inhibitor of nuclear factor kappa-B kinase subunit beta (Homo sapiens) (O14920 whole entry): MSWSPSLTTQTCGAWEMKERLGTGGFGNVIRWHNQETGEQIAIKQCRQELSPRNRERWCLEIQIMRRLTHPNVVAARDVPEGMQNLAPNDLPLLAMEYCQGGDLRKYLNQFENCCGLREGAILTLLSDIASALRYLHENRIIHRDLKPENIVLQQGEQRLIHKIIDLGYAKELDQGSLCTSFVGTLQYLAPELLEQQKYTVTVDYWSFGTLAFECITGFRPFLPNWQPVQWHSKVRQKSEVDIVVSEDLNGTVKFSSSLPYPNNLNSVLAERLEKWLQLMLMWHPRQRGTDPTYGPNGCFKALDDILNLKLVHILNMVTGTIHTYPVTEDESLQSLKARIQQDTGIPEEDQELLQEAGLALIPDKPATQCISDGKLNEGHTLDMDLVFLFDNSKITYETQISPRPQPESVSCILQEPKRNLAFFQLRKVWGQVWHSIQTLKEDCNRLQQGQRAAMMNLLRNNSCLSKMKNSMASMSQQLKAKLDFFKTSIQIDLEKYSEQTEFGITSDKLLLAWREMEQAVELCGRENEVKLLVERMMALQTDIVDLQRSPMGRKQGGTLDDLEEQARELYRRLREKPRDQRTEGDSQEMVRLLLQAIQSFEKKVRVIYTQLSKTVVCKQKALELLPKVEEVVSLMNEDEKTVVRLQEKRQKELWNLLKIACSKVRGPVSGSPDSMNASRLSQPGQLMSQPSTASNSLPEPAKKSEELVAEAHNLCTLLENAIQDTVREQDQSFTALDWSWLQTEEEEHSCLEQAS

## CNCCOc1ccc(-c2sc3nc(-c4cccs4)nc(NN4C(=O)C=C(C)C4=O)c3c2C)cc1.Cl
[1]
  Activity: 111%
[2]
  Activity: 96%
[3]
  Activity: 67%
[4]
  Activity: 63%
[5]
  clearance: 36.6 mL/min/kg
[6]
  Activity: 58%
[7]
  Activity: 42%
[8]
  half-life: 15.2 h
[9]
  IC50: 9.75 µM
[10]
  Activity: 79%
[11]
  Activity: 81%
[12]
  Activity: 80%
[13]
  Activity: 44%
[14]
  Activity: 70%
[15]
  Activity: 75%
[16]
  Activity: 92%
[17]
  Activity: 30%
[18]
  Activity: 88%
[19]
  Activity: 113%
[20]
  GI50: 0.54 µM
[21]
  Activity: 63 to 100%
[22]
  AUC(0-inf): 2120 ng·h/mL
[23]
  Activity: 31%
[24]
  Activity: 102%
[25]
  Activity: 87%
[26]
  Activity: 111%
